Measurements taken from patent US10323026B2, “Heterocyclic compound” (Takeda Pharmaceutical Company Limited, priority 2016, dated 2019).

Target: T1, His-hMAGL (recombinant polyhistidine tagged human MAGL protein) (Homo sapiens, UniProt Q99685)
T1 construct: polyhistidine (His) (N); made in house; host or cells: E. coli BL21(DE3)
T1 sequence (Q99685 1-303): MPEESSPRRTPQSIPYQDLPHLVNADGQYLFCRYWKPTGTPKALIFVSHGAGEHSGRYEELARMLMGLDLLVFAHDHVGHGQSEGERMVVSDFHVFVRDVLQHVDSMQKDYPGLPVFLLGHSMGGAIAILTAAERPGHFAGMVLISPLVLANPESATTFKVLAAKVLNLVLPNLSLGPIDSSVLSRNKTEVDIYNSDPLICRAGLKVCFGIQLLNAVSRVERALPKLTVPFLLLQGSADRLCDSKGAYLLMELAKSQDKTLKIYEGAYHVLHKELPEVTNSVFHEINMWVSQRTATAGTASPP
Assay: Measurement of MAGL inhibitory activity (RapidFire-mass spectrometry of arachidonic acid produced from 2-arachidonylglycerol)
Type: biochemical
Conditions: test compound 10 μM, His-hMAGL, substrate 2-arachidonylglycerol, 60 min preincubation; for inhibition at 10 µM: read-out: % inhibition (10 μM)
Protocol: Furthermore, acetonitrile (50 μL) containing 3 μM arachidonic acid-d8 (Cayman Chemical Company) was added and the mixture was stirred.
The amount of arachidonic acid in the obtained enzyme reaction mixture was calculated by measuring by RapidFire-mass spectrometry and correcting by the amount of arachidonic acid-d8. High Throughput online solid phase extraction was performed using RapidFire 300™ system (Agilent Technologies, Inc.). Samples were loaded on SPE C4 cartridge (Agilent Technologies, Inc.) and desalted with 0.2 (v/v) % acetic acid (Wako Pure Chemical Industries, Ltd.) in ultrapure water/acetonitrile (70/30, v/v) at a flow rate of 1.5 mL/min, eluted at a flow rate of 0.5 mL/min with 0.2(v/v) % acetic acid dissolved in acetonitrile/ultrapure water (90/10, v/v), and injected into the mass spectrometry part. The injection needle was washed with ultrapure water (500 millisecond) and acetonitrile (500 millisecond) to minimize carry-over. […] The RapidFire300 system was controlled by RapidFire UI software version 3.6 (Agilent Technologies, Inc.).
The mass spectrometry of the resultant product was performed using API4000™ triple quadrupole mass spectrometer (AB SCIEX) equipped with an electrospray ion source (TurboIon Spray™) in a negative selected reaction monitoring (SRM) mode. The conditions of SRM are shown below. The parameters of the instrument were optimized as follows: capillary temperature 600° C., ion spray voltage −4.5 kV, collision gas 8, curtain gas 15 psi, ion source gas 1 60 psi, ion source gas 2 60 psi. The mass spectrometer was controlled by Analyst™ software version 1.5.1 (AB SCIEX). The peak area integration was analyzed using RapidFire integrator software version 3.6 (Agilent Technologies, Inc.).
MAGL inhibitory rate (%) was calculated according to the following calculation formula. (1-(arachidonic acid production amount of test compound addition group−arachidonic acid production amount of enzyme-free group)÷(arachidonic acid production amount of test compound-free group−arachidonic acid production amount of enzyme-free group))×100

Row | inhibition at 10 µM | % inhibition (10 μM) | Compound
1 | 100% |  | CC1(C2CCN(C(=O)[C@H]3C[C@]4(COC(=O)N4)C3)CC2)Cc2cc(F)ccc2O1 (stereo partly shown) [Example 4, (2s,4s)-2-((4-(5-fluoro-2-methyl-2,3-dihydro-1-benzofuran-2-yl)piperidin-1-yl)carbonyl)-7-oxa-5-azaspiro[3.4]octan-6-one]
2 | 100% |  | CC1(C2CCN(C(=O)[C@H]3C[C@]4(CCC(=O)N4)C3)CC2)Cc2cc(F)ccc2O1 (stereo partly shown) [Example 5, (2r,4s)-2-((4-(5-fluoro-2-methyl-2,3-dihydro-1-benzofuran-2-yl)piperidin-1-yl)carbonyl)-5-azaspiro[3.4]octan-6-one]
3 | 100% |  | O=C1N[C@]2(CO1)C[C@H](C(=O)N1CCC(C(F)(F)c3ccc(Cl)cc3Cl)CC1)C2 [Example 8, (2s,4s)-2-((4-((2,4-dichlorophenyl)(difluoro)methyl)piperidin-1-yl)carbonyl)-7-oxa-5-azaspiro[3.4]octan-6-one]
4 | 100% |  | O=C1N[C@]2(CO1)C[C@H](C(=O)N1CC(COc3ccc(C(F)(F)F)cc3F)C1)C2 [Example 9, (2s,4s)-2-((3-((2-fluoro-4-(trifluoromethyl)phenoxy)methyl)azetidin-1-yl)carbonyl)-7-oxa-5-azaspiro[3.4]octan-6-one]
5 | 100% |  | CC(Oc1ccc(C(F)(F)F)cc1F)C1CN(C(=O)[C@H]2C[C@]3(COC(=O)N3)C2)C1 (stereo partly shown) [Example 10, (2s,4s)-2-((3-(1-(2-fluoro-4-(trifluoromethyl)phenoxy)ethyl)azetidin-1-yl)carbonyl)-7-oxa-5-azaspiro[3.4]octan-6-one]
6 |  | 100% | CC(Oc1ccc(C(F)(F)F)cc1F)C1CN(C(=O)[C@H]2C[C@]3(COC(=O)N3)C2)C1 (stereo partly shown) [Example 13, (2s,4s)-2-((3-(1-(2-fluoro-4-(trifluoromethyl)phenoxy)ethyl)azetidin-1-yl)carbonyl)-7-oxa-5-azaspiro[3.4]octan-6-one]
7 |  | 100% | CC(Oc1ccc(C(F)(F)F)cc1F)C1CN(C(=O)[C@H]2C[C@]3(COC(=O)N3)C2)C1 (stereo partly shown) [Example 14, (2s,4s)-2-((3-(1-(2-fluoro-4-(trifluoromethyl)phenoxy)ethyl)azetidin-1-yl)carbonyl)-7-oxa-5-azaspiro[3.4]octan-6-one]
8 | 100% |  | CC(Oc1ccc(F)cc1F)C1CCN(C(=O)[C@H]2C[C@]3(COC(=O)N3)C2)CC1 (stereo partly shown) [Example 15, (2s,4s)-2-((4-(1-(2,4-difluorophenoxy)ethyl)piperidin-1-yl)carbonyl)-7-oxa-5-azaspiro[3.4]octan-6-one]
9 | 100% |  | CC1(C2CCN(C(=O)[C@H]3C[C@]4(COC(=O)N4)C3)CC2)Cc2cc(F)cc(F)c2O1 (stereo partly shown) [Example 16, (2s,4s)-2-((4-(5,7-difluoro-2-methyl-2,3-dihydro-1-benzofuran-2-yl)piperidin-1-yl)carbonyl)-7-oxa-5-azaspiro[3.4]octan-6-one]
10 | 100% |  | CC(Oc1ccc(Cl)cc1F)C1CCN(C(=O)[C@H]2C[C@]3(CCC(=O)N3)C2)CC1 (stereo partly shown) [Example 17, (2r,4s)-2-((4-(1-(4-chloro-2-fluorophenoxy)ethyl)piperidin-1-yl)carbonyl)-5-azaspiro[3.4]octan-6-one]
11 | 101% |  | CC(Oc1ccc(Cl)cc1F)C1CCN(C(=O)[C@H]2C[C@]3(COC(=O)N3)C2)CC1 (stereo partly shown) [Example 18, (2s,4s)-2-((4-(1-(4-chloro-2-fluorophenoxy)ethyl)piperidin-1-yl)carbonyl)-7-oxa-5-azaspiro[3.4]octan-6-one]
12 | 101% |  | O=C1N[C@]2(CO1)C[C@H](C(=O)N1CCC(COc3ccc(C(F)(F)F)cc3Cl)CC1)C2 [Example 19, (2s,4s)-2-((4-((2-chloro-4-(trifluoromethyl)phenoxy)methyl)piperidin-1-yl)carbonyl)-7-oxa-5-azaspiro[3.4]octan-6-one]
13 | 100% |  | Cc1cc(F)ccc1OC(C)C1CCN(C(=O)[C@H]2C[C@]3(COC(=O)N3)C2)CC1 (stereo partly shown) [Example 20, (2s,4s)-2-((4-(1-(4-fluoro-2-methylphenoxy)ethyl)piperidin-1-yl)carbonyl)-7-oxa-5-azaspiro[3.4]octan-6-one]
